Test results reported in PMC7725785, “TRIB3 promotes MYC-associated lymphoma development through suppression of UBE3B-mediated MYC degradation” (Nature Communications, 2020).

What was measured:
[1] = tested on: TRIB3-MYC interaction and MYC expression; assay: TRIB3/MYC Co-IP and MYC immunoblot in spleens and LNs of treated Myc^Eμ mice; assay type: in vivo, mouse; settings: Myc^Eμ mice; result in words
Protocol: (§1) To evaluate the survival rate of secondary recipients, these mice were monitored for 70 days. For the evaluation of IHC staining and protein expression, three mice of each group were killed at the end of treatment, and the thymuses, spleens and LNs were collected for pathology detection, Co-IP, and western blot assays.
Co-IP experiments were performed as described previously. Briefly, cells were collected and lysed for 30 min on ice. Soluble lysates were incubated with the indicated antibodies at 4 °C overnight, followed by incubation with Protein A/G Plus-Agarose (Santa Cruz Biotechnology, TX, USA) at 4 °C for 2 h. Soluble lysates were incubated with the indicated Anti-Myc magnetic beads (Bimake.com, B26302), Anti-Flag Affinity Gel (Bimake.com, B23102) or Anti-HA Affinity Gel (Bimake.com, B23302) at 4 °C overnight. Immunocomplexes were separated from the beads and then boiled for 10 min. The precipitated proteins were subjected to SDS-PAGE and blotted with specific antibodies. For immunoblotting assays, proteins were extracted from cells, spleens, or lymphoma tissues using RIPA buffer (Cell Signaling Technology, MA, USA). A BCA Protein Assay Kit was used to determine protein concentrations. Protein extracts were separated by SDS-PAGE, transferred onto PVDF membranes, and subjected to immunoblot analysis. […]

TRIB3-MYC interaction = assay: SIM imaging and Co-IP of the TRIB3-MYC interaction in Raji cells; assay type: cell-based, human; settings: SIM (30 min) and Co-IP (4 μM, six hours), versus PCON, result in words
Protocol: Co-IP experiments were performed as described previously. Briefly, cells were collected and lysed for 30 min on ice. Soluble lysates were incubated with the indicated antibodies at 4 °C overnight, followed by incubation with Protein A/G Plus-Agarose (Santa Cruz Biotechnology, TX, USA) at 4 °C for 2 h. Soluble lysates were incubated with the indicated Anti-Myc magnetic beads (Bimake.com, B26302), Anti-Flag Affinity Gel (Bimake.com, B23102) or Anti-HA Affinity Gel (Bimake.com, B23302) at 4 °C overnight. Immunocomplexes were separated from the beads and then boiled for 10 min. The precipitated proteins were subjected to SDS-PAGE and blotted with specific antibodies. For immunoblotting assays, proteins were extracted from cells, spleens, or lymphoma tissues using RIPA buffer (Cell Signaling Technology, MA, USA). A BCA Protein Assay Kit was used to determine protein concentrations. Protein extracts were separated by SDS-PAGE, transferred onto PVDF membranes, and subjected to immunoblot analysis. Western blot images were captured by a Tanon 5200 chemiluminescent imaging system (Tanon, Shanghai, […]). Human lymphoma and benign LN paraffin tissue microarrays were purchased from US Biomax (LM482a).
Cells (~20,000) were grown on coverslips and fixed with formalin after the indicated treatment. […]

[2] = tested on: murine Myc^Eμ lymphoma cells in NSG mice; assay: Limiting dilution transplantation of BCL cells into NSG mice (survival of secondary recipients); assay type: in vivo, mouse; settings: NSG mice injected i.p. with lymphoma cells from PCM4 (2 mg/kg) group versus PCON group, 70 days; result in words
Source text: as §1

FL^T174 PDX = assay: PDX model tumor growth and weight, FL T174; assay type: in vivo, human; settings: result in words
Protocol: (§2) Four 5-week-old male NSG mice were implanted subcutaneously with 200 μl of a 1:1 mixture of Matrigel® Basement Membrane Matrix High Concentration (Corning, 354230) and minced fresh tumor fragments resected from lymphoma patients. Approximately 3–4 weeks following implantation, the first-generation mice (G1) were killed, and tumor masses were isolated. The tumor cells were tested for human CD19 (BCL) or CD3 expression (T cell lymphoma), and the remaining tumor mass was cut into 3-mm^3 sections and passaged into 4–5 NSG mice as the second generation (G2). After stable passage of the third generation (G3), the tumor mass of the fourth generation (G4) was equally cut into 3-mm^3 pieces and then passaged subcutaneously into 30–50 NSG mice (100 μl of a 1:2 mixture of Matrigel and tumor tissue) for in vivo treatment (6–8 mice per group, dependent on the experimental drug treatment). During and after treatment with the vehicle control or the indicated agent, tumor burden was evaluated by measuring the tumor volume to determine the therapeutic efficacy in the PDX models. […]
(§3) To evaluate the survival rate, these mice were monitored for 8 months (Myc^Eμ mice). […] During the indicated treatments, tumor burden was evaluated by measuring the tumor volume to determine the therapeutic efficacy in the PDX models.

MYC and MAX = assay: Duolink PLA of MYC and MAX colocalization in Raji cells; assay type: cell-based, human; settings: PCM4-treated Raji cells, result in words
Protocol: A total of 1 × 10^6 cells were seeded overnight in a six-well plate. The next day, cells were collected, fixed in 4% paraformaldehyde solution, permeabilized with 0.5% Triton-X100, blocked with Duolink® Blocking Solution, and probed with antibodies directed against MYC (R&D, NB600-302, 1:100), TRIB3 (Novus, H00057761-M03, 1:100), UBE3B (Invitrogen, PA5-59390, 1:100), and MAX (Cell Signaling Technology, #4739, 1:100). The cells were then treated with the Duolink In Situ Red Starter Mouse/Rabbit kit (Sigma Aldrich, DUO92101-1KT) according to the manufacturer’s instructions. Images were captured with an OLYMPUS confocal microscope.

TLBL^T123 PDX = assay: PDX model tumor growth and weight, T-LBL T123; assay type: in vivo, human; settings: result in words
Protocol: as §2, §3

Raji cells = assay: Cell viability (CCK-8) of Raji cells with PCM4 and DOX; assay type: cell-based, human; settings: result in words
PTCL^T144 PDX = assay: PDX model tumor growth and weight, PTCL T144; assay type: in vivo, human; settings: result in words
Protocol: as §2, §3

MYC ubiquitination = MYC ubiquitination in PCON- and PCM4-treated Raji cells; assay type: cell-based, human; settings: lymphoma cells; result in words

## HLYVSPWGGKRREQLKHKLEQLR [PCM4, fused peptide generated by linking CM4 to a cell-penetrating peptide]
[1]
  TRIB3-MYC interaction and MYC expression in the LNs and spleens: decrease in the TRIB3-MYC interaction and MYC expression
TRIB3-MYC interaction
  colocalization and interaction of TRIB3 with MYC in lymphoma cells: inhibited the colocalization and interaction of TRIB3 with MYC
[2]
  survival rate of secondary recipients: better survival rate
FL^T174 PDX; PDX T174 (high TRIB3 and MYC expression), PCM4 5 mg/kg and DOX 2 mg/kg
  growth and weights of tumors, combination of PCM4 and DOX: further decreased the growth and weights of tumors
FL^T174 PDX; PDX T174, NSG mice, PCM4 5 mg/kg i.v. three times a week
  tumor growth of PDX: inhibited the tumor growth
MYC and MAX
  foci of MAX-MYC colocalization: reduced foci of MAX-MYC colocalization
TLBL^T123 PDX; PDX T123 (high TRIB3 and MYC expression), PCM4 5 mg/kg and DOX 2 mg/kg
  growth and weights of tumors, combination of PCM4 and DOX: further decreased the growth and weights of tumors
TLBL^T123 PDX; PDX T123, NSG mice, PCM4 5 mg/kg i.v. three times a week
  tumor growth of PDX: inhibited the tumor growth
Raji cells
  effect on Raji cell proliferation in combination with doxorubicin (DOX): synergistically inhibited Raji cell proliferation
PTCL^T144 PDX; PDX T144 (high TRIB3 and MYC expression), PCM4 5 mg/kg and DOX 2 mg/kg
  growth and weights of tumors, combination of PCM4 and DOX: further decreased the growth and weights of tumors
PTCL^T144 PDX; PDX T144, NSG mice, PCM4 5 mg/kg i.v. three times a week
  tumor growth of PDX: inhibited the tumor growth
MYC ubiquitination
  MYC ubiquitination and degradation: rescued MYC ubiquitination and degradation
